Source: PubChem BioAssay AID179 (DTP/NCI, 2004)
Values joined by “and” are separate entries in the source; they are usually repeats but may differ in a detail not shown here. Identical values can stand only once. Active and inactive are the calls of the source.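 The calls were made as follows: active = compounds giving half or more protection of infected cells from virus-caused growth loss, again on retest; inactive = the rest.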

Test system: CEM cells HIV-1 protection, formazan growth assay
Assay: NCI AIDS Antiviral Assay
Details: for IC50: measured here: growth of uninfected CEM cells
Procedure, shortened: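 Screen of anti-HIV-1 activity in human CEM cells using a formazan-based growth measurement at five drug concentrations. Hits with 50% or greater protection were repeated, and confirmation required reproducible complete protection.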

Structure (SMILES)	EC50	IC50	outcome
CN(C)Cc1cc(C(=O)/C=C/c2ccc(Cl)cc2)cc(CN(C)C)c1O	> 200 µM	9.12 µM	–
CC(C(=O)O)/C(=C\c1ccc2c(c1)OCO2)C(=O)O (stereo unspecified)	–	–	inactive
CC1(c2ccc3ccccc3c2)OC(=O)c2cccc(F)c21 (stereo unspecified)	–	–	inactive
Nc1cc(C(=O)O)ccc1O	> 200 µM	39.8 µM	–
CCN(CC)C(=O)CCNC(C)Cc1c[nH]c2ccccc12 (stereo unspecified)	> 200 µM	> 200 µM	–
CC(C)=C[C@@H]1C[C@H](n2cc(C)c(=O)[nH]c2=O)ON1CCO	> 200 µM	> 200 µM	–
Cc1cc(Cl)ccc1NC(=O)C1C(=O)N(c2ccc(Cl)cc2C)C(=O)/C1=N\NC(N)=S (stereo unspecified)	> 11 µM	> 11 µM	–
CN(C)c1ccc(/C=C/C=C(/C#N)c2ccccc2)cc1	> 100 µM	12.3 µM	–
CCOC(=O)C1(c2ccccc2)CCC(=O)CC1	> 380 µM	> 380 µM	–
C=C1CC(c2ccc(O)c(OC)c2)Oc2c(OC)cccc21 (stereo unspecified)	> 316 µM	32.4 µM	–
CC(C)(C)OC(=O)NC(Cc1ccc(O)cn1)C(=O)O (stereo unspecified)	> 200 µM	> 200 µM	–
COc1cc2c(c(C3(O)C(=O)N(C)c4ccccc43)c1OC)OCO2 (stereo unspecified)	> 200 µM	> 200 µM	–
CC(=O)N(C(=O)CC(=O)NNCc1ccccc1Cl)c1ccc(Cl)cc1	> 200 µM	> 200 µM	–
O=Cc1c2c(cc3c1CC1(C3)Cc3cc4c(c(C=O)c3C1)CCCC4)CCCC2	> 200 µM	123 µM	–
CN(C)CCCN1C(=S)N(CCCN(C)C)c2c3ccccc3nc3c([N+](=O)[O-])ccc1c23	0.407 µM	1.07 µM	–
CCCNC(=O)Cn1c2c(c3ccccc31)CCCC2	> 200 µM	69.2 µM	–
C[CH2][Sn]([Cl])([CH2]C)[CH2]C	–	–	inactive
O=C(N/N=C\c1cccs1)c1ccncc1	> 200 µM	> 200 µM	–
CCOC(=O)C1CSCCSC1	> 174 µM	> 174 µM	–
C=CCNC(=S)NNC(=S)NCC=C	> 200 µM	23.4 µM	–
COP1(=O)OCC(C)(C)CO1	> 1380 µM	> 1380 µM	–
C=CCC1NCCC2=C1C(S(=O)(=O)c1ccc(C)cc1)c1ccccc12 (stereo unspecified)	> 200 µM	10.5 µM	–
C[n+]1cn(-c2nc3ccccc3nc2[N-]S(=O)(=O)c2ccccc2)c2ccccc21	> 200 µM	> 200 µM	–

Structure (SMILES)	EC50	IC50	outcome
O=C1CC(c2ccccc2)C(c2ccccc2)C1=O (stereo unspecified)	> 129 µM	52.5 µM	–
O=C1CN(CCN2CCOCC2)CC(=O)N2Cc3ccccc3CN12	> 200 µM	> 200 µM	–
Cc1ccc(NCC(=O)N2CC(=O)Nc3ccccc32)cc1	> 123 µM	> 123 µM	–
CC(C)C(NCc1c2ccccc2[n+]([O-])c2ccccc12)C(=O)O (stereo unspecified)	–	–	inactive
C1=CC2(C=C1)OC21CCC2(C=CC3(C2)OC3C2CCCCC2)CC1 (stereo unspecified)	> 200 µM	51.3 µM	–
S=C1N(c2ccc(Br)cc2)C2=Nc3ccccc3SC(=C2N=Nc2ccc(Br)cc2)N1c1ccc(Cl)cc1	> 32.4 µM	6.17 µM	–
Nc1ccc(-c2nc3sc(-c4ccc(N)cc4)nc3s2)cc1	> 16.2 µM	> 16.2 µM	–
COc1c(C)c(O)c2c(=O)cc(-c3ccccc3)oc2c1C	> 63.1 µM	> 63.1 µM	–
CN(C)CCCn1c(-c2ccc(Br)cc2)csc1=Nc1ccccc1	> 200 µM	9.77 µM	–
O=C(O)[C@H](CSSC[C@@H](C(=O)O)N1C(=O)c2ccccc2C1=O)N1C(=O)c2ccccc2C1=O	> 200 µM	> 200 µM	–
CC(NNC(=S)N1CCCC1)c1cccnn1 (stereo unspecified)	> 200 µM	0.372 µM	–
COC(=O)C(Cc1ccc2c(c1)CCC2)Cc1ccc2c(c1)CCC2	> 200 µM	112 µM	–
CC(C)C1CC[C@@H](C)C[C@@]1(O)CC(N)=O (stereo partly specified)	–	–	inactive
O/N=C1/CCCCCC1NO (stereo unspecified)	> 200 µM	> 200 µM	–
CCc1cccc(C(=O)NCCN(C)C)c1[N+](=O)[O-]	> 200 µM	> 200 µM	–
CC(=O)Nc1ccc(C2[C@H]3C(=O)N(c4ccc(Cc5ccc(N6C(=O)[C@@H]7ON(c8ccccc8)C(c8ccc(NC(C)=O)cc8)[C@@H]7C6=O)cc5)cc4)C(=O)[C@H]3ON2c2ccccc2)cc1 (stereo partly specified)	> 6.03 µM	> 6.03 µM	–
CCOC(=O)C#CCCOC1CCCCO1 (stereo unspecified)	> 138 µM	112 µM	–
CN(CC#N)C1CCC[C@]1(O)/C=C/[Si](C)(C)C (stereo partly specified)	> 102 µM	> 102 µM	–
COc1ccc(OC)c2c(C(=O)O)c(Cc3ccccc3)ccc12	–	–	inactive
NC12CC3CC(C1)CC(C(=O)O)(C3)C2	> 1070 µM	> 1070 µM	–
O=C(O)/C=C/c1c2ccc(=O)c(O)c-2oc2c(O)c(O)ccc12	6.03 µM and 24 µM	151 µM and 162 µM	–
O=C1C=CC(=O)c2c1c1c(c3c2C2c4ccccc4C3c3ccccc32)C2c3ccccc3C1c1ccccc12	> 10.2 µM	> 10.2 µM	–
O=C(c1ccco1)N(C(=S)N1CCN(c2ccccn2)CC1)c1ccccc1	> 47.9 µM	46.8 µM	–

Structure (SMILES)	EC50	IC50	outcome
CC1=CC(Nc2ccc(S(=O)(=O)c3ccc(NC4=NCCNC(C)=C4)cc3)cc2)=NCCN1	> 200 µM	> 200 µM	–
CCOC(=O)c1c(Br)c(-c2ccc(Br)cc2)c(Br)n1C	> 100 µM	43.7 µM	–
CCOC(=O)C1Cc2c([nH]c(=O)[nH]c2=O)OC1(C)c1ccccc1 (stereo unspecified)	> 200 µM	> 200 µM	–
N#C[C@H](OC1OC(COC(=O)/C=C/c2ccc(O)c(O)c2)C(O)C(O)C1O)c1ccccc1 (stereo partly specified)	–	–	inactive
COc1ccc(C([Se]c2ccccc2)C2C(=O)N(O)CC(=O)N2O)cc1 (stereo unspecified)	–	–	inactive
CCOC(=O)c1nn(Cc2ccccc2)c(=S)[nH]c1=O	–	123 µM	inactive
CSc1nc(-c2ccccc2)nc(C(C#N)C#N)n1	–	–	inactive
CCN(N=O)C1C2(CCCC2)NC(=O)C12CCCC2 (stereo unspecified)	–	–	inactive
COc1ccc(C2=Nc3cc(C)c(C)cc3NC(c3ccccc3)C2)cc1 (stereo unspecified)	> 200 µM	28.8 µM	–
CCOP(=O)(OCC)C(Cc1c[nH]c2ccccc12)C(=O)O (stereo unspecified)	> 200 µM	> 200 µM	–
CCOC(=O)C(CCc1ccccn1)C(C)=O (stereo unspecified)	> 200 µM	> 200 µM	–
COc1ccc(/C=C2\NC(=S)N(/C=C3\C(=O)Oc4ccccc4C3=O)C2=O)cc1	> 200 µM	148 µM	–
Clc1ccccc1C1SCc2nc3ccccc3n21 (stereo unspecified)	–	–	inactive
Cc1c(N)c2ccccc2c(=O)n1C	> 1120 µM	302 µM	–
O=C(O)CCCCCCCc1cccc(OCCO)c1	> 200 µM	> 200 µM	–
CC1=N/C(=C\c2cccc(F)c2)C(=O)O1	> 126 µM	> 126 µM	–
Cc1cccc2c1C(=O)/C(=C/c1ccccc1C(=O)O)C2	> 200 µM	123 µM	–
COc1ccc(CC2(Cc3ccc(OC)cc3)CCOC2=O)cc1	> 21.9 µM	> 21.9 µM	–
Cc1ccc(S(=O)(=O)n2cc(C=O)c(-c3cn(S(=O)(=O)c4ccc(C)cc4)cc3-c3cn(S(=O)(=O)c4ccc(C)cc4)cc3C=O)c2)cc1	> 200 µM	19.5 µM	–
O=C1[C@H]2ON(c3ccccc3)C(c3ccco3)[C@H]2C(=O)N1c1ccc(Cc2ccc(N3C(=O)[C@@H]4ON(c5ccccc5)C(c5ccco5)[C@@H]4C3=O)cc2)cc1 (stereo partly specified)	> 7.08 µM	> 7.08 µM	–
O=C1C2c3[nH]c4ccccc4c3[C@@H]3CCCCCCCCCCC3C2C(=O)N1c1ccccc1 (stereo partly specified)	–	–	inactive
C/C(O)=C(\N=O)C(=O)NCCc1ccccc1	> 288 µM	> 288 µM	–
CC(C)[C@@H]1CC[C@]2(COC(=O)CC(C)(C)CC(=O)O)CC[C@]3(C)[C@H](CC[C@@H]4[C@@]5(C)CC[C@H](OC(=O)CC(C)(C)CC(=O)O)C(C)(C)[C@@H]5CC[C@]43C)[C@@H]12	> 200 µM	9.77 µM	–

Structure (SMILES)	EC50	IC50	outcome
CCOC(=O)CC(NCCSS(=O)(=O)O)C(=O)OCC (stereo unspecified)	> 200 µM	> 200 µM	–
CCOC(=O)C(=O)CC(=O)C1=C(c2ccccc2OC)CC(c2cccs2)=CC1=O	> 200 µM	32.4 µM	–
c1ccc(CN(Cc2ccccn2)Cn2cccn2)nc1	–	–	inactive
O=C(O)CN1CCNCCN(CC(=O)O)CC1	> 100 µM	9.77 µM	–
NC(CC(=O)N/C=N\O)C(=O)O (stereo unspecified)	> 200 µM	> 200 µM	–
O=C(/C=C\c1ccccc1O)c1ccc(O)cc1O	> 72.4 µM	7.24 µM	–
O=C(O)COc1ccc(C(=O)/C(SS/C(C(=O)c2ccc(OCC(=O)O)c(Cl)c2Cl)=C2\C=C(c3ccc(Cl)cc3)SS2)=C2/C=C(c3ccc(Cl)cc3)SS2)c(Cl)c1Cl	–	–	inactive
COC(=O)CC12CC(CC(=O)O1)N(C(=O)Nc1ccccc1)O2 (stereo unspecified)	> 77.6 µM	> 77.6 µM	–
O=Cc1[nH]c(=O)[nH]c(=O)c1CCl	> 200 µM	35.5 µM	–
CCCCCCCCCCCCCCCCCCOC(COP(=O)(O)OCC1CCC(n2cnc3c(=O)[nH]cnc32)O1)COP(=O)(O)OCC1OC(n2cc(C)c(=O)[nH]c2=O)CC1N=[N+]=[N-] (stereo unspecified)	1.17 µM	162 µM	–
N#Cc1ccc(NC(=O)C(CC(=O)OCc2ccccc2)NC(=O)OCc2ccccc2)cc1 (stereo unspecified)	> 200 µM	> 200 µM	–
COc1cc2c(cc1OC)c1c(OC)c(OC)cc3c1c1c2sc(=S)n1CC3	–	–	inactive
O=S(=O)(CCCCl)SCCCCl	> 145 µM	20 µM	–
O=C1CCCCCCCCCC(=O)Nc2ccccc2-c2ccccc2N1	–	–	inactive
Cc1c(-c2ccccc2)sc(/N=C/c2cc(Br)cc(Br)c2O)c1C#N	> 20 µM	0.708 µM	–
O=C1CCSSCCC(=O)NCCCN1	> 40.7 µM	> 40.7 µM	–
O=C1CCCCCN1C(=O)c1ccccc1	> 1150 µM	53.7 µM	–
C/C=C(\C)C(=O)O[C@@H]1CC[C@]2(CO2)C2(COC(C)=O)C(OC(C)=O)CC(C)[C@](C)(C[C@H](O)C3=CC(=O)OC3)[C@@H]12 (stereo partly specified)	–	–	inactive
CCn1c(O)c(C=Nc2ccccc2)s/c1=N/Nc1nc(-c2ccc([N+](=O)[O-])cc2)cs1	> 200 µM	14.5 µM	–
Cc1ccc(S(=O)(=O)OCC2CC[C@]3(C)C4CCC5(C)C(CCC5[C@H](C)CCC(=O)O)[C@@H]4CC[C@@H]3C2)cc1 (stereo partly specified)	> 4.9 µM	> 4.9 µM	–
